Earlier results on three compounds are cited in patent US20220003741A1, “ORAL WASH FOR ORAL FLUID COLLECTION AND ANALYSIS AND METHODS OF USE THEREOF” (priority 2018, published 2022).

For data set [1] the following is noted: versus aripiprazole and dehydro aripiprazole.
Test in data set [2]: not given
The source holds these as a separate data set.

Structures are written as SMILES.

Consider `O=C(O)CCCOc1ccc2c(c1)NC(=O)CC2` [OPC-3373], for which the “water solubility compared with parent compound aripiprazole and dehydro aripiprazole” value in data set [1] is “much more water soluble”.

In the case of `CCCCCc1cc(O)c2c(c1)OC(C)(C)[C@@H]1CCC(C)=C[C@@H]21` [THC], the “fraction of THC excreted in the feces” value (feces) is on record as “More than 55%”. In addition, under “urine”, the “fraction of THC excreted in the urine” value is on record as “approximately 20%”. Take `CN1CCCC1c1cccnc1` (centres unmarked) [nicotine]: the “time to reach the brain after inhalation” value in data set [2] (after inhalation, crosses the blood-brain barrier) was 10 to 20 s. The “elimination half-life of nicotine in the body” value in data set [2] (in vivo) is reported as “around two”.
